Measured values taken from patent publication US7704946B2, “Reversible inhibition of pyramidal gap junction activity” (Caritas St. Elizabeth's Medical Center, priority 2006, dated 2010).

System: pyramidal gap junctions
Experiment: Patch clamp recordings of electrically coupled pyramidal pairs in cortical slices, bath-applied soluble Aβ
Assay type: cell-based, rats and ferrets
Settings: for washout time to restore gap junctional activity (reversibility): peptide washout

Row | Substance | inhibition of pyramidal gap junction activity, compared between species | washout time to restore gap junctional activity (reversibility) [min] | reduction of postjunctional responses (1 μM bath-applied for 10 minutes, FIG. 2) [%] | effect on presynaptic action potentials (application of Aβ1-40, FIG. 2)
1 | β-Amyloid [25-35] (GSNKGAIIGLM) [Aβ25-35] | same effect as Aβ 1-40 and Aβ 1-42 | 10 | – | –
2 | β-Amyloid [Aβ1-40, β-Amyloid [1-40]] | – | 10 | ~50 | not influenced
